Measured values from US20100184679A1, “USE OF A COMBINATION OF CART PEPTIDES AS A THERAPEUTIC AGENT” (priority 2007, published 2010).
Where no end group is shown, it is not given here.

Assays:
HCMV strain AD169 = assay: HCMV plaque formation assay in MRC-5 cells; assay type: cell-based; settings: for inhibition of HCMV plaque formation as compared to the virus control experiment: 10 micrograms per ml, 7-10 days
Excerpt: Ganciclovir was used as positive control.

HUVEC = assay: Endothelial tube formation assay; assay type: cell-based, human; settings: 10 micrograms per ml, 20 hours
Excerpt: Positive control was vehicle only.

[1] = system: hepatitis B virus (HBV) ayw strain; assay: HBV assay in HepG2-2.2.15 cells (TaqMan PCR of secreted HBV DNA); assay type: cell-based; settings: 10 micrograms per ml, six days, HBV DNA in supernatant
murine spleen cells = assay: Th1/Th2 cytokine profiling assay (Ovalbumin-restimulated spleen cells, CBA Kit); assay type: cell-based, Balb/c mice; settings: 10 micrograms per ml, Ovalbumin restimulation, 72 hours
Description: The Balb/c mice (originated in 1923, it is a popular strain and is used in many different research disciplines. Also classified as an inbred from the production of 20 or more successive brother-sister matings, the Balb/c mouse is albino and small in size) were immunized on Days 1, 15, and 29 with Ovalbumin (Ovalbumin is the main protein found in egg white, commonly used to stimulate an immunological reaction in test animals) in PBS (5 micrograms/injection). On day 50, spleens of the mice were harvested (3 weeks after last boost with Ovalbumin), Cells were cultured (2×10^5/well in triplicate) and incubated with culture medium or test peptides—10 micrograms per ml—for 30 min. Thereafter, additional Ovalbumin was added to the cells at 10 micrograms/ml for in vitro restimulation of the cells. 72 hours later, cell supernatants were harvested and assayed using the Becton Dickinson Mouse Th1/Th2 Cytokine CBA Kit. This kit can be used to measure Interleukin-2 (IL-2), Interleukin-4 (IL-4), Interleukin-5 (IL-5), Interferon-γ (IFN-γ), and Tumor Necrosis Factor-α (TNF-α) protein levels in a single sample. The kit performance has been optimized for analysis of physiologically relevant concentrations (pg/ml levels) of specific cytokine proteins in tissue culture supernatants and serum samples.

Human A549 cells = assay: Apoptosis induction assay (Annexin-5); assay type: cell-based; settings: 10 micrograms per ml, 24 hours
Description: Human A549 cells (carcinomic human alveolar basal epithelial cells) were utilized in the experiments employing the Annexin-5 apoptosis assay. […] Test peptides—10 micrograms per ml—were exposed for 24 hours to the A549 cells before they were analyzed for signs of apoptosis.

[2] = system: Primary Human endothelial cells (HUVEC); assay: Endothelial cell migration assay; assay type: cell-based; settings: 10 micrograms per ml, 22 hours
Description: Thereafter, designated concentration of testing peptides—10 micrograms per ml—was added in duplicate wells.

HIV-1IIIB = assay: HIV-1 antiviral assay in CEM-SS cells (MTS readout)

Compound | inhibition of HCMV plaque formation as compared to the virus control experiment (HCMV strain AD169) | inhibition of the tube formation of human endothelial cells (HUVEC) | inhibition of HBV replication as compared to the virus control infection [1] | change of the production of IFN-gamma (murine spleen cells) | change of the production of IL-5 (murine spleen cells) | production of TNF-alpha, induced by (murine spleen cells) | induction of apoptosis on human lung cells (Human A549 cells) | inhibition of the migration of human endothelial cells [2] | antiviral activity of positive control compounds (HIV-1) (HIV-1IIIB) | other results
Val-Pro-Ile-Tyr-Glu-Lys-Lys-Tyr-Gly-Gln-Val-Pro-Met-Cys-Asp-Ala-Gly-Glu-Gln-Cys-Ala-Val-Arg-Lys-Gly-Ala-Arg-Ile-Gly-Lys-Leu-Cys-Asp-Cys-Pro-Arg-Gly-Thr-Ser-Cys-Asn-Ser-Phe-Leu-Leu-Lys-Cys-Leu-OH (VPIYEKKYGQVPMCDAGEQCAVRKGARIGKLCDCPRGTSCNSFLLKCL-OH; cysteine pairing not given here) [Peptide 2] | 6.6% | 12% | 45.0% | did not significantly change | did not significantly change | 27.5% | 17.8% | 22% | – | production of IL-2, decreased by (murine spleen cells): 61.5%; production of IL-4, decreased by (murine spleen cells): 100%
CC(C)(C)NC(=O)[C@@H]1CN(Cc2cccnc2)CCN1C[C@@H](O)C[C@@H](Cc1ccccc1)C(=O)N[C@H]1c2ccccc2C[C@H]1O [indinavir] | – | – | – | – | – | – | – | – | expected levels of antiviral activity | –
Cc1cn([C@H]2C[C@H](N=[N+]=[N-])[C@@H](CO)O2)c(=O)[nH]c1=O [AZT] | – | – | – | – | – | – | – | – | expected levels of antiviral activity | –
Nc1nc(O)c2ncn(COC(CO)CO)c2n1 [Ganciclovir, reference compound] | – | – | – | – | – | – | – | – | – | antiviral activity of positive control compound (HCMV) (HCMV strain AD169; positive control): expected levels of antiviral activity
Tyr-Gly-Gln-Val-Pro-Met-Cys-Asp-Ala-Gly-Glu-Gln-Cys-Ala-Val-OH (YGQVPMCDAGEQCAV-OH; cysteine pairing not given here) [Peptide 1] | 0.7% | 16% | 33.6% | did not significantly change | did not significantly change | 95.0% | did not show any significant induction | 15% | – | production of IL-2, induced by (murine spleen cells): 147.7%; production of IL-4, induced by (murine spleen cells): 545.4%
